Results published in US9006225B2, “Stable pharmaceutical composition” (Asahi Kasei Pharma Corporation, priority 2008, dated 2015).

Assays:
Format in all cases: physicochemical
[1] = Coloring of solutions of the compound of Preparation Example 7 with additives after storage (Experimental Example 5); set-up: key to Degree of coloring, Sample solution after storage at 60° C. for 6 days / Degree of coloring, Control solution after storage at 60° C. for 6 days: −: No coloring; +: Coloring; ++: Marked coloring; settings: for Degree of coloring, Sample solution after storage at 60° C. for 6 days: 10 mg compound of Preparation Example 7 in methanol 2 mL + 1 mL of 10 mg/mL aqueous solution of the additive; for Coloring of the solution of the compound of Preparation Example 7 by the influence of the additive: 60° C. for 6 days, methanol/water; for Degree of coloring, Control solution after storage at 60° C. for 6 days: control: 10 mg compound of Preparation Example 7 in methanol 2 mL + 1 mL purified water, no additive
Procedure: The compound obtained according to the method of Preparation Example 7 was weighed in an amount of 10 mg in a stoppered test tube, added with methanol (2 mL) for dissolution, and then further added with a 10 mg/mL aqueous solution of each of additives shown in Table 5 (1 mL) to prepare a sample solution. Separately, the compound obtained according to the method of Preparation Example 7 was weighed in an amount of 10 mg in a stoppered test tube, added with methanol (2 mL) for dissolution, and then further added with purified water (1 mL) to prepare a control solution. The prepared sample solutions and the control solution were stored in an incubator (Minijet Oven, Toyama Sangyo) at 60° C. for 6 days.

[2] = Coloring of compound solutions with glucose after storage (Experimental Example 4); set-up: key: −: No coloring; +: Coloring; ++: Marked coloring; settings: for Degree of coloring, Sample solution after storage at 60° C. for 6 days: 10 mg compound in methanol 2 mL + 1 mL glucose aqueous solution 10 mg/mL; for Degree of coloring, Control solution after storage at 60° C. for 6 days: 10 mg compound in methanol 2 mL + 1 mL purified water (no glucose)
Procedure: The compounds of Preparation Examples 2 to 5 and 7 were each weighed in an amount of 10 mg in a stoppered test tube, added with methanol (2 mL), dissolved in the methanol, and then further added with a glucose aqueous solution (1 mL) of 10 mg/mL concentration to prepare sample solutions. Separately, the compounds of Preparation Examples 2 to 5 and 7 were each weighed in an amount of 10 mg in a stoppered test tube, added with methanol (2 mL), dissolved in the methanol, and then further added with purified water (1 mL) to prepare control solutions. The prepared sample solutions and the control solutions were stored in an incubator (Minijet Oven, Toyama Sangyo) at 60° C. for 6 days.

[3] = Solubility of crystal forms in an aqueous solvent

Degree of coloring, Sample solution after storage at 60° C. for 6 days [1] | Coloring of the solution of the compound of Preparation Example 7 by the influence of the additive [1] | Degree of coloring, Control solution after storage at 60° C. for 6 days [1] | Degree of coloring, Sample solution after storage at 60° C. for 6 days [2] | Degree of coloring, Control solution after storage at 60° C. for 6 days [2] | Solubility in an aqueous solvent compared with the type B crystals [3] | SMILES
++ | coloring | − |  |  |  | O=C[C@H](O)[C@@H](O)[C@H](O)CO [Xylose]
+ | coloring | − |  |  |  | OC[C@H]1O[C@@H](O[C@H]2[C@H](O)[C@@H](O)C(O)O[C@@H]2CO)[C@H](O)[C@@H](O)[C@H]1O (some centres unmarked) [Lactose]
+ | coloring | − |  |  |  | O=C(CO)[C@@H](O)[C@H](O)[C@H](O)CO [Fructose]
− | no coloring | − |  |  |  | OC[C@H]1O[C@H](O[C@H]2O[C@H](CO)[C@@H](O)[C@H](O)[C@H]2O)[C@H](O)[C@@H](O)[C@@H]1O [Trehalose]
− | no coloring | − |  |  |  | OC[C@H]1O[C@@](CO)(O[C@H]2O[C@H](CO)[C@@H](O)[C@H](O)[C@H]2O)[C@@H](O)[C@@H]1O [Sucrose]
+ | coloring | − |  |  |  | OC[C@H]1O[C@H](O[C@H]2[C@H](O)[C@@H](O)[C@H](O)O[C@@H]2CO)[C@H](O)[C@@H](O)[C@@H]1O [Maltose]

Continued, molecule first:

SMILES | Degree of coloring, Sample solution after storage at 60° C. for 6 days [1] | Coloring of the solution of the compound of Preparation Example 7 by the influence of the additive [1] | Degree of coloring, Control solution after storage at 60° C. for 6 days [1] | Degree of coloring, Sample solution after storage at 60° C. for 6 days [2] | Degree of coloring, Control solution after storage at 60° C. for 6 days [2] | Solubility in an aqueous solvent compared with the type B crystals [3]
OC[C@@H](O)[C@@H](O)CO [Erythritol] | − | no coloring | − |  |  | 
Cn1ccc2cc(-c3cc(CCC(=O)O)cc(N)c3OCC3CCCC3)ccc21 [Compound of Preparation Example 4, 3-[3-amino-4-cyclopentylmethyloxy-5-(1-methyl-1H-indol-5-yl)phenyl]propionic acid] |  |  |  | ++ | − | 
Nc1cc(CCC(=O)O)cc(-c2ccc3[nH]ncc3c2)c1OC1Cc2ccccc2C1 [Compound of Preparation Example 5, 3-[3-amino-4-(indan-2-yloxy)-5-(1H-indazol-5-yl)phenyl]propionic acid] |  |  |  | + | − | 
Cn1ncc2cc(-c3cc(CCC(=O)O)cc(N)c3OC3Cc4ccccc4C3)ccc21 [Compound of Preparation Example 7, 3-[3-amino-4-(indan-2-yloxy)-5-(1-methyl-1H-indazol-5-yl)phenyl]propionic acid] |  |  |  | ++ | − | higher
Nc1cc(CCC(=O)O)cc(-c2ccc3[nH]ccc3c2)c1OCC1CCCC1 [Compound of Preparation Example 3, 3-[3-amino-4-cyclopentylmethyloxy-5-(1H-indol-5-yl)phenyl]propionic acid] |  |  |  | ++ | − | 
Cc1ccc(CCOc2c(N)cc(CCC(=O)O)cc2-c2ccc3ccccc3c2)cc1 [Compound of Preparation Example 2, 3-{3-amino-4-[2-(4-methylphenyl)ethyloxy]-5-(naphthalen-2-yl)phenyl}propionic acid] |  |  |  | + | − | 
OC[C@@H](O)[C@@H](O)[C@H](O)[C@H](O)CO [D-Mannitol] | − | no coloring | − |  |  | 
